According to patent publication US8541344B2, “Compositions with cyclopropenes and metal-complexing agents” (Rohm and Haas Company, priority 2004, dated 2013):
Where a name gives a salt, the structure may show the parent alone.

How the values were obtained:
[1] = system: Tomatoes (Rutgers 39 Variety); test: Tomato epinasty test; format: in vivo; conditions: for % Control of Epinasty: foliar spray, 1-MCP 140 ppb, ethylene 14 ppm 12-14 hours
Experimental: Tomato epinasty tests were performed as follows:
Tomatoes (Rutgers 39 Variety Harris Seeds No 885 Lot 37729-A3) were grown in 2½″ square pots filled with a commercial potting mix. Two seeds were place in each pot. Plants that had expanded first true leaves and were between 3 and 5 inches high were used for the tomato epinasty test.
To conduct the assay, the plants were sprayed to run off with the test 1-MCP foliar spray and allowed to dry for 4 hours in sunlight These operations were performed in a ventilated area away from the plants growing in the greenhouse so there would not be any unintended treatment to growing plants destined for later experiments.
The 1-MCP treated plants and both treated and untreated controls were placed into an SLX controlled-atmosphere shipping box and sealed. To the box, ethylene was injected through a septum, which gave a concentration of 14 ppm. The plants were held sealed for 12-14 hours in the dark with ethylene in the atmosphere. At the end of ethylene treatment, the box was opened and scored for epinasty. Scoring for epinasty was accomplished by using the following scoring system for each pot. • 1. 0% no epinasty (100% control) • 2. 20% A couple leaves show some drooping (80% control) • 3. 50% Plants show 50% of full response. Not all leaves need to show effect. (50% control) • 4. 80% Almost all leaves drooping and some show underside of leaf exposed on top. (20% control) • 5. 100% Leaves completely drooping and the underside of the leaf exposed from above. (0% control)
The score of each pot is recorded. The average of 6 or 8 pots is averaged to get a score. The percentage improvement is calculated by interpolating the percentage improvement from the control water (i.e., no additives) 1-MCP treatment.
Tomato epinasty tests were conducted using a formulation that included water; a 1-MCP α-CD complex that contained 0.14% 1-MCP by weight, based on the weight of the 1-MCP α-CD complex; and sodium salt of EDTA. The amount of 1-MCP α-CD complex was chosen so that the formulation had 140 ppb of 1-MCP. Also included in the formulation were an anionic surfactant (0.1% by weight based on the weight of the formulation), isopropanol (1% by weight based on the weight of the formulation), and a spray oil (1% by weight based on the weight of the formulation).

[2] = Cyclopropene release measurement (headspace gas chromatography); format: physicochemical; conditions: for effect on % release of 1-MCP (in words): compared to the 13% with no agent
Experimental: Cyclopropene Headspace Measurement Method:
A composition containing water and cyclopropene was sealed in a bottle equipped with a septum in a manner that leaves a portion of the volume of the bottle filled with gas; a portion of the headspace was analyzed for cyclopropene at 1 hour after injection. The analysis method was gas chromatography using the following parameters:
Cyclopropene Release Measurement
The release of cyclopropene from a mixture of water and cyclopropene was measured as follows.
From the measure concentration of cyclopropene in the headspace and the amount of cyclopropene added to the bottle, the fraction of the total amount of cyclopropene in the bottle that resides in the headspace can be calculated and reported as a percentage based on the amount of cyclopropene added to the bottle.

[3] = deionized water #1, 5 ppm copper ion, metal-complexing agent 1 mM
[4] = deionized water #1, 5 ppm copper ion, metal-complexing agent 5 mM
[5] = deionized water #1, 5 ppm copper ion, metal-complexing agent 10 mM

SMILES: CC1=CC1 [1-MCP, 1-methylcyclopropene, reference compound]
- control of epinasty (in words) ([1]; deionized water with 1-MCP): does control epinasty
- % Control of Epinasty ([1]; de-ionized water, EDTA 0 mM): 100%
- % Control of Epinasty ([1]; well water, EDTA 0 mM): 0%
- % Control of Epinasty ([1]; well water, EDTA 0.003 mM): 80%
- control of epinasty (in words) ([1]; well water with 1-MCP): does not control epinasty
- control of epinasty (in words) ([1]; well water with 1-MCP and sodium salt of EDTA): does control epinasty
- % Release of 1-MCP ([2]; 1-MCP α-CD complex in deionized #1 water, no metal-complexing agent): 100%
- % Release of 1-MCP ([2]; 1-MCP α-CD complex in deionized #2 water, no metal-complexing agent): 60%
- % Release of 1-MCP ([2]; 1-MCP α-CD complex in filtered (MilliQ) water, no metal-complexing agent): 100%
- % Release of 1-MCP ([2]; 1-MCP α-CD complex in tap #1 water, no metal-complexing agent, headspace at 1 hour): 60%
- % Release of 1-MCP ([2]; 1-MCP α-CD complex in tap #2 water, no metal-complexing agent, headspace at 1 hour): 13%
- activity of 1-MCP (in words) ([2]; copper ions without sodium salt of EDTA): reduction in activity
- activity of 1-MCP (in words) ([2]; copper ions, sodium salt of EDTA added 2 hours after the 1-MCP α-CD complex): fails to maintain the activity
- activity of 1-MCP (in words) ([2]; copper ions, sodium salt of EDTA added to the water before the 1-MCP α-CD complex): maintains the full activity
- % Release of 1-MCP ([2]; deionized water #1, copper ions 0 ppm, sodium salt of EDTA 0 mM): 100%
- % Release of 1-MCP ([2]; deionized water #1, copper ions 1 ppm, sodium salt of EDTA 0 mM): 54%
- % Release of 1-MCP ([2]; deionized water #1, copper ions 5 ppm, sodium salt of EDTA 0 mM): 36%
- % Release of 1-MCP ([2]; deionized water #1, copper ions 5 ppm, sodium salt of EDTA 11 mM added 2 hours after 1-MCP α-CD complex, headspace 1 hour later): 37%
- % Release of 1-MCP ([2]; deionized water #1, copper ions 5 ppm, sodium salt of EDTA 11 mM added before the 1-MCP α-CD complex): 100%
- % Release of 1-MCP ([2]; deionized water #1, copper ions 10 ppm (cupric sulfate), sodium salt of EDTA 0 mM): 10%

SMILES: O=C(O)CC(O)(CC(=O)O)C(=O)O [Citric Acid, citric acid]
- % Release of 1-MCP ([2]; tap #2 water, citric acid 1 milliMolar added first): 63%
- % Release of 1-MCP ([2]; tap #2 water, citric acid 10 milliMolar added first): 100%
- % Release of 1-MCP ([2]; tap #2 water, citric acid 100 milliMolar added first): 92%
- effect on % release of 1-MCP (in words) ([2]; tap #2 water): improves the % release dramatically

SMILES: O=C(O)CN(CCN(CC(=O)O)CC(=O)O)CC(=O)O [Sodium Salt of EDTA, ethylenediaminetetraacetic acid]
- effect on % release of 1-MCP (in words) ([2]; tap #2 water): improves the % release dramatically
- % Release of 1-MCP ([2]; tap #2 water, sodium salt of EDTA 0.00001 milliMolar): 87%
- % Release of 1-MCP ([2]; tap #2 water, sodium salt of EDTA 0.0001 milliMolar): 100%
- % Release of 1-MCP ([2]; tap #2 water, sodium salt of EDTA 0.001 milliMolar): 100%
- % Release of 1-MCP ([2]; tap #2 water, sodium salt of EDTA 0.01 milliMolar): 100%
- % Release of 1-MCP ([2]; tap #2 water, sodium salt of EDTA 0.1 milliMolar): 100%
- % Release of 1-MCP ([2]; tap #2 water, sodium salt of EDTA 1 milliMolar): 100%
- % Release of 1-MCP ([2]; tap #2 water, sodium salt of EDTA 10 milliMolar): 100%

SMILES: O=C(O)C(O)C(O)C(=O)O (centres unmarked) [Tartaric acid, tartaric acid]
- % Release of 1-MCP [2, 3]: 99%
- % Release of 1-MCP [2, 4]: 85%
- % Release of 1-MCP [2, 5]: 92%

SMILES: O=C(O)CN(CC(=O)O)CC(=O)O [nitrilotriacetic acid]
- % Release of 1-MCP [2, 3]: 97%
- % Release of 1-MCP [2, 4]: 100%
- % Release of 1-MCP [2, 5]: 95%

SMILES: O=C([O-])[O-].[Na+].[Na+] [sodium carbonate]
- % Release of 1-MCP [2, 3]: 61%
- % Release of 1-MCP [2, 4]: 68%
- % Release of 1-MCP [2, 5]: 71%

SMILES: O=P([O-])([O-])OP(=O)([O-])[O-].[Na+].[Na+].[Na+].[Na+] [tetrasodium pyrophosphate]
- % Release of 1-MCP [2, 3]: 42%
- % Release of 1-MCP [2, 4]: 39%
- % Release of 1-MCP [2, 5]: 54%
